Assay results published in patent US10864229B2, “Use of nitrite salts in chronic ischemia” (priority 2007, dated 2020).
Like-named read-outs stand apart in the source and are kept apart here.

Key:
[1] = system: mouse hind-limb ischemia model; assay: Laser Doppler hind-limb blood flow, chronic treatment in hind-limb ischemia model; type: in vivo, mouse (C57BL/6J)
From the text: (§1) Animals and Reagents. Unless otherwise stated, male wild type (C57BL/6J) mice weighing 20-25 gm and age 2-3 months were used. The mice were bred and housed at the Association for Assessment and Accreditation of Laboratory Animal Care, International-accredited LSUHSC-Shreveport animal resource facility and maintained according to the National Research Council's Guide for Care and Use of Laboratory Animals. All experimental protocols were approved by the LSU Institutional Animal Care and Use Committee. Sodium nitrite, sodium nitrate, phosphate buffered saline (PBS), and all other chemicals were purchased from Sigma Chemical (St. Louis, Mo.). Hind-Limb Ischemia Model. Hind limb ischemia was induced by ligating the left common femoral artery proximal to origin of profunda femoris artery according to Senthilkumar, A., Smith, R. D., Khitha, J., Arora, N., Veerareddy, S., Langston, W., Chidlow, J. H., Jr., Barlow, S. C., Teng, X., Patel, R. P., et al. 2007. Arterioscler Thromb Vase Biol 27:1947-1954. Mice were anesthetized with intraperitoneal injection of ketamine (100 mg/kg) and xylazine (8 mg/kg); surgery was performed […] aseptic conditions. The common femoral vein and femoral nerve were dissected away from the artery. Two ligatures were placed in the common femoral artery proximal to the profunda femoris artery and then transected between the two ligations. The incision was then closed and the ligation was immediately verified by laser Doppler measurement of tissue blood flow.
(§2) Laser Doppler measurements of tissue blood flow. The Vasamedics Laserflo BPM2 deep tissue penetrating laser doppler device was used to measure hind limb blood flow. The tip of laser probe was placed with stable positioning using a probe stand over the medial calf muscle of mice. Readings were recorded in ml of blood flow per 100 g tissue per minute from non-ischemic and ischemic limbs. Daily blood flow measurements were taken before the first nitrite or nitrate injection of a 24 hour period in order to obtain representative steady state changes in perfusion. Percent change in tissue blood flow was determined by dividing ischemic limb blood flow by non-ischemic limb blood flow and multiplied by 100. In a separate series of experiments, blood flow was also measured within 30 seconds after nitrite or nitrate administration to assess acute changes in blood flow.
We examined the effect of a range of sodium nitrite doses on ischemic tissue blood flow in the mouse hind-limb ischemia model described in Example 1. Sodium nitrite was administered via intraperitoneal injection twice a day in a dose range of 8.25-3,300 μg/kg; 15 mice were used per treatment group. Blood flow was measured according the laser Doppler method of Example 1. Changes in ischemic tissue perfusion were determined by measuring ischemic limb blood flow which was divided by the respective contra-lateral non-ischemic limb blood flow to calculate a percent change for each animal.

[2] = system: mouse hind-limb ischemia model; assay: Vascular density (CD31/DAPI) of gastrocnemius muscle tissue; type: in vivo, mouse (C57BL/6J)
From the text: as §1
Arterioscler Thromb Vase Biol 27:1947-1954.

[3] = system: mouse hind-limb ischemia model; type: in vivo, mouse (C57BL/6J)
Description: as §2
Stimulation of angiogenesis alone during chronic ischemia is generally insufficient for restoring tissue perfusion. Increased arteriogenesis through the recruitment and differentiation of smaller arterioles is important to supply newly formed microvasculature. Moreover, an acute increase in vascular shear stress due to increased blood flow is a critical mediator of arteriogenesis. We examined the effect of 165 μg/kg sodium nitrite on acute changes (30 sec) in ischemic and nonischemic tissue perfusion according to the method in Example 1. Ten mice were used per treatment group.

[4] = system: endothelial cell proliferation in ischemic gastrocnemicus tissues; assay: Endothelial cell proliferation (Ki67 staining) in gastrocnemius tissue; type: in vivo, mouse (C57BL/6J); settings: day 3
From the text: as §1
The effect of sodium nitrite on endothelial cell proliferation in ischemic gastrocnemicus tissues was analyzed in the hind-limb ischemia model of Example 1.

[5] = system: ischemic hind limb of C57BL/6J mice; settings: 165 μg/kg I.P. b.i.d. started day 5 post-ligation
Description: We also evaluated the effect of delaying chronic sodium nitrite treatment on restoration of hind limb blood flow. Permanent femoral artery ligation was performed on the left hind limb of C57BL/6J mice (n=6 per treatment group) as described in Example 1. […] Blood flow recovery was monitored throughout the study using deep tissue penetrating laser Doppler as described in Example 1. […] “Day 0 Pre” on the x-axis refers to blood flow on the day of ligation before the ligation was performed; “Day 0 Post” on the x-axis refers to blood flow on the day of ligation after the ligation was performed.

SNO+XNO = settings: 165 μg/kg
Description: (§3) Measurement of Nitrite, NO Metabolite, Tissue cGMP, and eNOS Protein Levels. Nitrite and tissue NO metabolite levels tissue (nitrosothiol, C- or N-nitroso compounds, or iron-nitrosyl proteins which are collectively referred to SNO+XNO) whether were measured using chemiluminescence techniques according to Lang, J. D., Jr., Teng, X., Chumley, P., Crawford, J. H., Isbell, T. S., Chacko, B. K., Liu, Y., Jhala, N., Crowe, D. R., Smith, A. B., et al. 2007. J Clin Invest. 117:2583-2591. Gastrocnemius muscle tissue cGMP levels were determined using the cGMP ELISA from Cayman Chemical (Ann Arbor, Mich.) according to the manufacturer's directions. Specimens were collected within 2 min after injection of either PBS or sodium nitrite. Total eNOS protein levels in hind-limb tissue were determined by Western blot analysis.
The effect of nitrite treatment on levels of the NO metabolites, SNO and XNO was measure according to the method in Example 1. Twenty mice were used per treatment group.

[6] = system: mouse hind-limb ischemia model
Description: Vascular casting. Hind limb vascular casting of ischemic limbs was performed using Microfil silicone injection MV120. Before vascular casting, papaverine (5 ng/ml) and adenosine (1 mg/ml) were given intravenously to increase perfusion of the casting resin. Briefly, the abdominal aorta proximal to the femoral artery bifurcation was ligated with 5.0 silk suture material and cannulated caudal to the ligation using PESO tubing held in place with a silk ligature. 400 μl of Microfil was infused into the aortic catheter and allowed to set in situ for 16 hours at 4° C. Hind limb muscle tissue was cleared by incubating tissues in graded glycerol solutions of 40%, 60%, 80%, and 100% for 24 hours each. Vascular casts were subsequently photographed using a stereomicroscope.
To further evaluate arteriogenesis activity, we performed hind-limb ligations distal to the profunda femoris and proximal to the knee to more easily distinguish changes in the arterial supply. […] Arterial casts were made according to the method in Example 1.

[7] = Description: as §3
(§4) Analysis of blood and tissue nitrite levels in nitrate-treated and control animals was performed according to the method in Example 1.

eNOS protein = settings: 165 μg/kg
Description: as §3, §4

cGMP = settings: 165 μg/kg; day 3 or 7
Description: as §3

[8] = system: ischemic hind limb of Db/Db diabetic mice
Description: We evaluated the effect of sodium nitrite treatment on ischemic hind limb blood flow in a diabetic mouse model. Permanent femoral artery ligation was performed on the left hind limb of Db/Db diabetic mice (n=5 per treatment group) according to the methods in Examples 1 and 2, except that the mice were anesthetized with 2% inhaled isofluorane. […] Blood flow recovery was monitored throughout the study using deep tissue penetrating laser Doppler according to the method in Example 1.

[9] = system: excisional wounds in C57BL/6J mice; settings: for percent wound surface remaining vs PBS-treated controls: 165 μg/kg I.P. b.i.d.
Description: Full thickness excisional wounds were created using a 4 mm punch biopsy device. C57BL/6J mice were anesthetized according to the method in Example 1. Wounds were created by pinching the loose skin and punching a half circle biopsy to obtain a uniform 4 mm diameter wound (n=4 per treatment group). […] Wound diameter was measured using digital calipers and plotted as the percent wound surface area remaining at each successive day.

[10] = system: ischemic hind limb of C57BL/6J mice; settings: 165 μg/kg single I.P. bolus 45 minutes after ligation; 7 day period
Description: Permanent femoral artery ligation was performed on the left hind limb of C57BL/6J mice (n=3 per treatment group) according to the method in Example 1. A single bolus injection of either PBS or sodium nitrite (165 μg/kg) was given I.P. 45 minutes after completing the ligation. Blood flow recovery was monitored every other day over a 7 day period to evaluate the efficacy of single bolus injection therapy. […] “Day 0 Pre” on the x-axis refers to blood flow on the day of ligation before the ligation was performed; “Day 0 Post” on the x-axis refers to blood flow on the day of ligation after the ligation was performed.

## CC1(C)N([O])C(c2ccc(C(=O)O)cc2)=[N+]([O-])C1(C)C [carboxy PTIO, 2-(4-Carboxyphenyl)-4,4,5,5-tetramethylimidazoline-1-oxyl-3-oxide, reference compound]
[1]; carboxy PTIO 1 mg/kg daily plus sodium nitrite 165 μg/kg
  effect of NO scavenger on ability of sodium nitrite to restore ischemic limb blood flow: significantly attenuated
[2]; cPTIO plus sodium nitrite 165 μg/kg, days 3 and 7
  effect of cPTIO cotreatment on nitrite augmentation of angiogenesis in ischemic hind limbs: prevented nitrite augmentation of angiogenesis
[3]; mouse, in vivo
  effect of cPTIO on nitrite-dependent acute tissue blood flow change: significantly blunted
[4]; cPTIO plus sodium nitrite, ischemic tissue
  effect of cPTIO on nitrite-induced increase in Ki67 to CD31 colocalization: blocked
[4]; carboxy PTIO plus sodium nitrite, ischemic tissue
  effect of carboxy PTIO on nitrite-induced increase in Ki67 nuclear localization: blocked

## O=[N+]([O-])[O-].[Na+] [sodium nitrate, reference compound]
[1]; lowest dose 8.25 μg/kg, by days 5 and 7
  ischemic limb blood flow: augmented ischemic limb blood flow

## O=NO [sodium nitrite]
[5]
  ischemic hind limb blood flow recovery with delayed therapy: restored
SNO+XNO; day 3
  tissue SNO+XNO levels: Neither sodium nitrite (165 μg/kg) nor PBS significantly altered
SNO+XNO; day 7, compared to PBS
  SNO+XNO levels in ischemic tissue: significantly increased
[6]; day 7, vascular casting
  collateral vessels in arterial cast of ischemic limb: Numerous collateral vessels
[6]; ligation distal to profunda femoris, vs PBS-treated controls
  number of arterial branch points: significantly greater
[1]; 165 μg/kg i.p. twice a day
  temporal efficacy on ischemic blood flow compared to higher and lower doses: optimal temporal efficacy
[1]; 165 μg/kg i.p., nonischemic limb
  hind limb blood flow in the nonischemic limbs: neither PBS nor sodium nitrite altered
[1]; 165 μg/kg injection
  blood flow after injection in hind limbs ischemic for 24 h: enhanced blood flow
[1]; 8.25, 16.5, 165 and 3,300 μg/kg i.p. twice a day, by day 3 post ligation, progressively increased by day 7, vs PBS
  percentage blood flow in ischemic hind limbs: increased the percentage blood flow
[7]; 165 μg/kg chronic therapy, days 3 and 7
  blood levels of nitrite: significantly decreased over time
[7]; 165 μg/kg, day 3, ischemic tissue
  tissue nitrite levels: significantly increased
[7]; 165 μg/kg, day 7
  tissue nitrite levels, nitrite-treated vs PBS-treated: did not differ significantly
eNOS protein; day 3, ischemic hind-limb tissue
  eNOS protein expression: significantly decreased
eNOS protein; day 3, nonischemic hind-limb tissue
  eNOS protein expression: without altering expression
eNOS protein; day 7, ischemic tissue
  eNOS protein expression: no effect
eNOS protein; day 7, nonischemic tissue
  eNOS protein expression: reduced
cGMP
  tissue cGMP levels: neither 165 μg/kg sodium nitrite nor PBS significantly altered
[2]; 165 μg/kg, day 7, compared to PBS or sodium nitrate controls
  endothelial staining of CD31 in ischemic muscle tissue: much more abundant
[2]; 165 μg/kg, day 7, nonischemic gastrocnemius
  nonischemic tissue vascular density: did not significantly alter
[2]; 165 μg/kg, days 3 and 7, compared to PBS or sodium nitrate
  vascular density of ischemic gastrocnemius muscle: significantly increased
[2]; 3,300 μg/kg compared to 165 μg/kg
  augmentation of ischemic tissue vascular density, high dose vs low dose: less potent
[8]; 165 μg/kg I.P. b.i.d. started post-ligation
  ischemic hind-limb blood flow recovery in diabetic mice: restored
[8]; 165 μg/kg I.P. b.i.d., all time points analyzed
  blood flow in ischemic hind limbs vs PBS-treated controls: significantly greater
[8]; 165 μg/kg I.P. b.i.d., by the end of the study
  blood flow in ischemic hind limbs relative to preligation: approached preligation levels
[3]; 165 μg/kg, days 3 and 7
  acute blood flow change under chronic nitrite therapy: lesser, yet still significant, increase
[3]; mouse, in vivo
  acute enhancement of ischemic tissue blood flow: 92.3±18%
  duration of increased blood flow after injection: > 10 min
[9]; 165 μg/kg I.P. b.i.d. from wounding, 4 mm wound
  excision wound healing: enhanced
[9]; first six days of the study
  percent wound surface remaining vs PBS-treated controls: significantly less
[9]; remaining four days
  percent wound surface remaining vs PBS-treated controls: lower
[4]; 165 μg/kg, ischemic tissue
  Ki67 nuclear localization (colocalization with DAPI): significantly increased
  Ki67 to CD31 colocalization: significantly increased
[4]; 165 μg/kg, non-ischemic tissue
  Ki67 nuclear localization (colocalization with DAPI): but not non-ischemic tissues
[10]
  ischemic hind limb blood flow recovery after single bolus: did not restore
